Laboratory results as given in PubChem BioAssay (NCI).
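Grown in 96-well plates, cells were treated for 48 hours with each compound at five concentrations. Insufficient inhibition: endpoint recorded as highest concentration tested. GI50: concentration for 50% inhibition of growth. Definition used: TGI = concentration required for complete inhibition of growth.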

Tests used:
Assay in all cases: NCI tumour cell line growth inhibition, 48 h
A498 renal = test system: A498 renal
HCT-15 colon = test system: HCT-15 colon
HL-60(TB) leukemia = test system: HL-60(TB) leukemia
HS 578T breast = test system: HS 578T breast
K-562 leukemia = test system: K-562 leukemia
MDA-MB-231 breast = test system: MDA-MB-231 breast
MOLT-4 leukemia = test system: MOLT-4 leukemia
NCI-H522 lung = test system: NCI-H522 lung
SK-MEL-2 melanoma = test system: SK-MEL-2 melanoma

Structure (SMILES) | GI50 (A498 renal) | TGI (A498 renal) | GI50 (HCT-15 colon) | TGI (HCT-15 colon) | GI50 (HL-60(TB) leukemia) | TGI (HL-60(TB) leukemia) | GI50 (HS 578T breast) | TGI (HS 578T breast) | GI50 (K-562 leukemia) | TGI (K-562 leukemia) | GI50 (MDA-MB-231 breast) | TGI (MDA-MB-231 breast) | GI50 (MOLT-4 leukemia) | TGI (MOLT-4 leukemia) | GI50 (NCI-H522 lung) | TGI (NCI-H522 lung) | TGI (SK-MEL-2 melanoma) | GI50 (SK-MEL-2 melanoma)
N#Cc1cccc(C2C3=C(COC3=O)N(CCO)c3cc4c(cc32)OCO4)c1 (stereo unspecified) | 1.2 µM | 4.14 µM | 0.971 µM | > 50 µM | 1.32 µM | 4.36 µM | 1.3 µM | 11.1 µM | 0.294 µM | > 50 µM | 2.42 µM | > 50 µM | 3.64 µM | > 50 µM | 0.561 µM | 4.7 µM |  | 
c1ccc(OC2=NC3=S(S2)SC(Oc2ccccc2)=N3)cc1 |  | 75 µM |  | 43.3 µM |  | 42.5 µM |  |  |  | 38 µM |  |  |  | 31 µM |  | 36.1 µM | 29.8 µM | 
NC(Cc1ccccc1)c1nccs1 (stereo unspecified) |  | > 100 µM |  | > 100 µM |  |  |  | > 100 µM |  | > 100 µM |  | > 100 µM |  | > 100 µM |  | > 100 µM | > 100 µM | 
COc1cc2cnc3c4cc(OCc5ccccc5)ccc4ccc3c2cc1OC |  |  |  | > 100 µM |  | 9.27 µM |  |  |  | > 100 µM |  |  |  | 30.9 µM |  | > 100 µM | 63 µM | 
O=C1NC2C(O)CCCCC2C12CCCCC2 (stereo unspecified) |  | > 100 µM |  | > 100 µM |  | > 100 µM |  |  |  | > 100 µM |  |  |  | > 100 µM |  | > 100 µM | > 100 µM | 
C[CH2][Sn]([CH2]C)([O]C(=O)c1ccc(F)cc1)[O]C(=O)c1ccc(F)cc1 | 16.8 µM | 36.3 µM | 25.7 µM | > 63 µM | 60.5 µM | > 100 µM |  |  | 16.7 µM | 64.7 µM |  |  | 26.7 µM | > 85.1 µM | 1.71 µM | 4.48 µM | 17.5 µM | 12.8 µM
Nc1c2ccccc2nc2c(C(=O)Nc3ccc(S(N)(=O)=O)cc3)cccc12 |  | > 100 µM |  | > 100 µM |  |  |  |  |  | > 100 µM |  |  |  | 58.6 µM |  | > 100 µM | > 100 µM | 
C[C@H]1C=C2C(=O)O[C@H]3CC[C@@H](C1)[C@@]23O |  | 22.5 µM |  | 14.6 µM |  | 4.55 µM |  |  |  | 8.26 µM |  |  |  | > 100 µM |  | 8.15 µM | 10.1 µM | 
